Legend:
Assay type in all cases: in vivo, mouse
[1] = system: established BCMA-expressing NCI-H929 multiple myeloma tumors; experiment: Xenogenic tumor model, established NCI-H929 tumors + human PBMC in NSG mice, treatment from day 5 (Example 12); details: for Average Tumor Size (mm3) ± SEM on Day 5: day of first dose
Procedure: To determine the in vivo efficacy of anti-BCMA×anti-CD3 bispecific antibodies (Abs), a xenogenic tumor study was performed. Immunodeficient NOD.Cg-Prkdc^scidII2rg^tm1Wjl/SzJ (NSG) mice were subcutaneously implanted with a mixture of 10×10^6 BCMA-expressing NCI-H929 human multiple myeloma tumor cells and 0.5×10^6 human peripheral blood mononuclear cells (PBMC) isolated from a normal, healthy donor. The tumors were allowed to grow and establish for 5 days until they were approximately 70 mm^3 in size. […] The mice were administered these Abs twice per week for a total of seven doses, and tumor growth was assessed over 55 days.
Implantation and measurement of xenogenic tumors: NSG mice were subcutaneously implanted with a mixture of 10×10^6 BCMA-expressing NCI-H929 multiple myeloma cells and 0.5×10^6 PBMC derived from a normal, healthy donor. The tumors were allowed to grow and establish for 5 days until they were approximately 70 mm^3 in size. […] The mice were administered Abs twice per week for a total of seven doses. Tumor growth was measured with calipers twice per week for the duration of the experiment.
(§1) Calculation of xenogenic tumor growth and inhibition: In order to determine tumor volume by external caliper, the greatest longitudinal diameter (length in mm) and the greatest transverse diameter (width in mm) were determined. Tumor volumes based on caliper measurements were calculated by the formula: Volume (mm^3)=(length× width^2)/2.

[2] = system: BCMA-expressing NCI-H929 multiple myeloma tumors; experiment: Xenogenic tumor model, NCI-H929 + human PBMC s.c. in NSG mice, treatment from implantation (Example 10); details: 4 mg/kg
Procedure: To determine the in vivo efficacy of BCMA×CD3 bispecific antibodies (Abs), a xenogenic tumor study was performed. Immunodeficient NOD.Cg-Prkdc^scidII2rgtm1Wjl/SzJ (NSG) mice were subcutaneously implanted with a mixture of 10×10^6 BCMA-expressing NCI-H929 multiple myeloma cells and 0.5×10^6 human peripheral blood mononuclear cells (PBMC) isolated from a normal donor. […] The mice were administered Abs twice per week for a total of three weeks, and tumor growth was assessed over 40 days. While BCMA^+ tumors grew similarly in the vehicle-, isotype control-, and CD3-binding control-treated mice, both BCMA×CD3 Abs that were tested prevented the growth of tumors in vivo.
Implantation and measurement of syngeneic tumors: NSG mice were subcutaneously implanted with a mixture of 10×10^6 BCMA-expressing NCI-H929 multiple myeloma cells and 0.5×10^6 PBMC derived from a normal donor. […] The mice were administered Abs twice per week for a total of three weeks. Tumor growth was measured with calipers twice per week for the duration of the experiment. Mice were sacrificed 40 days after tumor implantation.
Calculation of syngeneic tumor growth and inhibition: In order to determine tumor volume by external caliper, the greatest longitudinal diameter (length in mm) and the greatest transverse diameter (width in mm) were determined. Tumor volumes based on caliper measurements were calculated by the formula: Volume (mm^3)=(length× width^2)/2.

[3] = system: BCMA-expressing NCI-H929 multiple myeloma tumors; experiment: Xenogenic tumor model, NCI-H929 + human PBMC s.c. in NSG mice, dose response, treatment from implantation (Example 11)
Procedure: To determine the in vivo efficacy of anti-BCMA×anti-CD3 bispecific antibodies (Abs), a xenogenic tumor study was performed. Immunodeficient NOD.Cg-Prkdc^ScidII2rg^tm1Wjl/SzJ (NSG) mice were subcutaneously implanted with a mixture of 10×10^6 BCMA-expressing NCI-H929 human multiple myeloma tumor cells and 0.5×10^6 human peripheral blood mononuclear cells (PBMC) isolated from a normal, healthy donor. […] The mice were administered these Abs twice per week for a total of seven doses, and tumor growth was assessed over 60 days. While BCMA+NCI-H929 tumors grew similarly in the vehicle- and CD3-binding control-treated mice, both anti-BCMA×anti-CD3 Abs that were tested prevented the growth of tumors in a dose-dependent manner in vivo.
Implantation and measurement of xenogenic tumors: NSG mice were subcutaneously implanted with a mixture of 10×10^6 BCMA-expressing NCI-H929 multiple myeloma cells and 0.5×10^6 PBMC derived from a normal, healthy donor. […] The mice were administered Abs twice per week for a total of seven doses. Tumor growth was measured with calipers twice per week for the duration of the experiment.
as §1

“REGN5459: anti-BCMA×anti-CD3 bispecific antibody: mAb21581 BCMA heavy chain, mAb7221G20 CD3 heavy chain and common light chain; SEQ ID NOs 126, 128, 129” was tested, and the “Average Tumor Size (mm3) ± SEM on Day 8” value ([1]; 0.04 mg/kg) was 152.3 ± 20.0 mm3, the “Average Tumor Size (mm3) ± SEM on Day 12” value ([1]; 0.04 mg/kg) was 462.5 ± 57.7 mm3 and the “Average Tumor Size (mm3) ± SEM on Day 15” value ([1]; 0.04 mg/kg) was 1094.2 ± 78.9 mm3. The “Average Tumor Size (mm3) ± SEM on Day 19” value ([1]; 0.04 mg/kg) was 2412.5 ± 184.6 mm3, the “Average Tumor Size (mm3) ± SEM on Day 22” value ([1]; 0.04 mg/kg) was 3285.9 ± 227.3 mm3 and the “Average Tumor Size (mm3) ± SEM on Day 5” value ([1]; 0.04 mg/kg) was 74.9 ± 6.4 mm3. For the same substance, the “Average Tumor Size (mm3) ± SEM on Day 8” value ([1]; 0.4 mg/kg) was 171.9 ± 23.2 mm3, the “Average Tumor Size (mm3) ± SEM on Day 12” value ([1]; 0.4 mg/kg) was 233.8 ± 63.5 mm3 and the “Average Tumor Size (mm3) ± SEM on Day 15” value ([1]; 0.4 mg/kg) was 327.2 ± 135.6 mm3. For the same substance, the “Average Tumor Size (mm3) ± SEM on Day 19” value ([1]; 0.4 mg/kg) was 606.2 ± 288.8 mm3, the “Average Tumor Size (mm3) ± SEM on Day 22” value ([1]; 0.4 mg/kg) was 815.4 ± 387.1 mm3 and the “Average Tumor Size (mm3) ± SEM on Day 27” value ([1]; 0.4 mg/kg) was 1849.9 ± 903.1 mm3. The “Average Tumor Size (mm3) ± SEM on Day 30” value ([1]; 0.4 mg/kg) was 661.8 ± 490.1 mm3, the “Average Tumor Size (mm3) ± SEM on Day 35” value ([1]; 0.4 mg/kg) was 996.8 ± 771.0 mm3 and the “Average Tumor Size (mm3) ± SEM on Day 40” value ([1]; 0.4 mg/kg) was 375.6 ± 375.6 mm3. The “Average Tumor Size (mm3) ± SEM on Day 55” value ([1]; 0.4 mg/kg) was 0 ± 0 mm3, the “Average Tumor Size (mm3) ± SEM on Day 5” value ([1]; 0.4 mg/kg) was 69.5 ± 4.1 mm3 and the “Average Tumor Size (mm3) ± SEM on Day 8” value ([1]; 4 mg/kg) was 45.8 ± 9.8 mm3. For the same substance, the “Average Tumor Size (mm3) ± SEM on Day 15” value ([1]; 4 mg/kg) was 0 ± 0 mm3, the “Average Tumor Size (mm3) ± SEM on Day 19” value ([1]; 4 mg/kg) was 0 ± 0 mm3 and the “Average Tumor Size (mm3) ± SEM on Day 22” value ([1]; 4 mg/kg) was 0 ± 0 mm3. For the same substance, the “Average Tumor Size (mm3) ± SEM on Day 27” value ([1]; 4 mg/kg) was 0 ± 0 mm3, the “Average Tumor Size (mm3) ± SEM on Day 30” value ([1]; 4 mg/kg) was 0 ± 0 mm3 and the “Average Tumor Size (mm3) ± SEM on Day 35” value ([1]; 4 mg/kg) was 0 ± 0 mm3. The “Average Tumor Size (mm3) ± SEM on Day 40” value ([1]; 4 mg/kg) was 0 ± 0 mm3, the “Average Tumor Size (mm3) ± SEM on Day 55” value ([1]; 4 mg/kg) was 0 ± 0 mm3 and the “Average Tumor Size (mm3) ± SEM on Day 5” value ([1]; 4 mg/kg) was 61.8 ± 5.2 mm3. The “Average Tumor Size (mm3) ± SEM on Day 4” value [2] was 26.5 ± 6.2 mm3, the “Average Tumor Size (mm3) ± SEM on Day 7” value [2] was 0 ± 0 mm3 and the “Average Tumor Size (mm3) ± SEM on Day 11” value [2] was 0 ± 0 mm3. The “Average Tumor Size (mm3) ± SEM on Day 14” value [2] was 0 ± 0 mm3, the “Average Tumor Size (mm3) ± SEM on Day 18” value [2] was 0 ± 0 mm3 and the “Average Tumor Size (mm3) ± SEM on Day 21” value [2] was 0 ± 0 mm3. For the same substance, the “Average Tumor Size (mm3) ± SEM on Day 28” value [2] was 0 ± 0 mm3, the “Average Tumor Size (mm3) ± SEM on Day 40” value [2] was 0 ± 0 mm3 and the “Average Tumor Size (mm3) ± SEM on Day 4” value ([3]; 0.04 mg/kg) was 33.0 ± 4.4 mm3. For the same substance, the “Average Tumor Size (mm3) ± SEM on Day 7” value ([3]; 0.04 mg/kg) was 8.4 ± 4.0 mm3, the “Average Tumor Size (mm3) ± SEM on Day 12” value ([3]; 0.04 mg/kg) was 0 ± 0 mm3 and the “Average Tumor Size (mm3) ± SEM on Day 19” value ([3]; 0.04 mg/kg) was 23.1± 23.1 mm3. The “Average Tumor Size (mm3) ± SEM on Day 22” value ([3]; 0.04 mg/kg) was 69.5 ± 69.5 mm3, the “Average Tumor Size (mm3) ± SEM on Day 26” value ([3]; 0.04 mg/kg) was 156.7 ± 156.7 mm3 and the “Average Tumor Size (mm3) ± SEM on Day 29” value ([3]; 0.04 mg/kg) was 226.6 ± 226.6 mm3. The “Average Tumor Size (mm3) ± SEM on Day 4” value ([3]; 0.4 mg/kg) was 19.6 ± 4.4 mm3, the “Average Tumor Size (mm3) ± SEM on Day 12” value ([3]; 0.4 mg/kg) was 0 ± 0 mm3 and the “Average Tumor Size (mm3) ± SEM on Day 15” value ([3]; 0.4 mg/kg) was 0 ± 0 mm3. The “Average Tumor Size (mm3) ± SEM on Day 19” value ([3]; 0.4 mg/kg) was 0 ± 0 mm3, the “Average Tumor Size (mm3) ± SEM on Day 22” value ([3]; 0.4 mg/kg) was 0 ± 0 mm3 and the “Average Tumor Size (mm3) ± SEM on Day 26” value ([3]; 0.4 mg/kg) was 0 ± 0 mm3. The “Average Tumor Size (mm3) ± SEM on Day 29” value ([3]; 0.4 mg/kg) was 0 ± 0 mm3, the “Average Tumor Size (mm3) ± SEM on Day 34” value ([3]; 0.4 mg/kg) was 0 ± 0 mm3 and the “Average Tumor Size (mm3) ± SEM on Day 39” value ([3]; 0.4 mg/kg) was 0 ± 0 mm3. For the same substance, the “Average Tumor Size (mm3) ± SEM on Day 42” value ([3]; 0.4 mg/kg) was 0 ± 0 mm3, the “Average Tumor Size (mm3) ± SEM on Day 46” value ([3]; 0.4 mg/kg) was 0 ± 0 mm3 and the “Average Tumor Size (mm3) ± SEM on Day 55” value ([3]; 0.4 mg/kg) was 0 ± 0 mm3. The “Average Tumor Size (mm3) ± SEM on Day 60” value ([3]; 0.4 mg/kg) was 0 ± 0 mm3, the “Average Tumor Size (mm3) ± SEM on Day 4” value ([3]; 4 mg/kg) was 21.8 ± 3.4 mm3 and the “Average Tumor Size (mm3) ± SEM on Day 7” value ([3]; 4 mg/kg) was 8.0 ± 4.3 mm3. For the same substance, the “Average Tumor Size (mm3) ± SEM on Day 12” value ([3]; 4 mg/kg) was 1.7 ± 1.7 mm3, the “Average Tumor Size (mm3) ± SEM on Day 15” value ([3]; 4 mg/kg) was 0 ± 0 mm3 and the “Average Tumor Size (mm3) ± SEM on Day 19” value ([3]; 4 mg/kg) was 0 ± 0 mm3. For the same substance, the “Average Tumor Size (mm3) ± SEM on Day 22” value ([3]; 4 mg/kg) was 0 ± 0 mm3, the “Average Tumor Size (mm3) ± SEM on Day 26” value ([3]; 4 mg/kg) was 0 ± 0 mm3 and the “Average Tumor Size (mm3) ± SEM on Day 29” value ([3]; 4 mg/kg) was 0 ± 0 mm3. The “Average Tumor Size (mm3) ± SEM on Day 34” value ([3]; 4 mg/kg) was 0 ± 0 mm3, the “Average Tumor Size (mm3) ± SEM on Day 39” value ([3]; 4 mg/kg) was 0 ± 0 mm3 and the “Average Tumor Size (mm3) ± SEM on Day 42” value ([3]; 4 mg/kg) was 0 ± 0 mm3. The “Average Tumor Size (mm3) ± SEM on Day 46” value ([3]; 4 mg/kg) was 0 ± 0 mm3, the “Average Tumor Size (mm3) ± SEM on Day 55” value ([3]; 4 mg/kg) was 0 ± 0 mm3 and the “Average Tumor Size (mm3) ± SEM on Day 60” value ([3]; 4 mg/kg) was 0 ± 0 mm3.
